In patent publication US8481525B2, “Kinase inhibitors and method of treating cancer with same” (University of Health Network, priority 2009, dated 2013):
Read-outs that look alike come from different tables or passages of the source.

How the values were obtained:
human PLK4 = molecular target: T1, human PLK4 (Homo sapiens, UniProt O00444); experiment: PLK4 Inhibition Assay (indirect ELISA); assay type: biochemical
T1 construct: amino terminal GST fusion of residues 1-391 of human PLK4; made in house; host or cells: E. coli
T1 sequence (O00444 1-391): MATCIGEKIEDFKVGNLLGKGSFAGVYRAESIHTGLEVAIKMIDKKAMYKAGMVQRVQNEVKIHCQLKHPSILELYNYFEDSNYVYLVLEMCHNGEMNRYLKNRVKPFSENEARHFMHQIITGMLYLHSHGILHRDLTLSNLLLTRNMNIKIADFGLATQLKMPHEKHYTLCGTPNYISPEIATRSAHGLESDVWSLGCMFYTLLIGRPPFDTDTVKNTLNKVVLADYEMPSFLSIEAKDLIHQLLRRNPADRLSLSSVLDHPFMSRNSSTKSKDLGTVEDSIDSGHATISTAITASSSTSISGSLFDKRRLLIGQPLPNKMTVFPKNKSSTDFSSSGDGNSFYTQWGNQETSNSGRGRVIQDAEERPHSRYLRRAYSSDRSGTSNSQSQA
Description: The protein was purified from clarified cell extracts after induction at 15° C. overnight using glutathione sepharose, gel permeation chromatography, and ion exchange (Resource Q). The resulting protein was dephosphorylated with lambda phosphatase (NEB cat# P0753), and resolved from the phosphatase using gluthione sepharose. The dephosphorylated GST-PLK4 was stored in aliquots at −80° C. until use.
PLK4 activity was measured using an indirect ELISA detection system. […] The colourimetric reaction was allowed to continue for 5 minutes, followed by addition of stop solution (0.5 N sulphuric acid), and quantified by detection at 450 nm with either a monochromatic or filter based plate reader (Molecular Devices M5 or Beckman DTX880, respectively).
Compounds were pre-incubated in the presence of enzyme for 15 minutes prior to addition of ATP and the activity remaining quantified using the above described activity assay. […] The IC50 value was determined using a non-linear 4 point logistic curve fit (XLfit4, IDBS) with the formula; (A+(B/(1+((x/C){grave over ( )}D)))), where A=background value, B=range, C=inflection point, D=curve fit parameter.

[1] = system: HCC1954 basal breast cancer cell line; experiment: Cell growth inhibition, Sulforhodamine B assay (SRB); assay type: cell-based; conditions: Homo sapiens, 5 days culture, SRB
Description: (§1) The cells were cultured for 5 days before the Sulforhodamine B assay (SRB) was performed to determine the compound's cell growth inhibition activity.
(§2) Sulforhodamine B (purchased from Sigma, Oakville, ON, Canada) is a water-soluble dye that binds to the basic amino acids of the cellular proteins. Thus, colorimetric measurement of the bound dye provides an estimate of the total protein mass that is related to the cell number. the cells are fixed in situ by gently aspirating off the culture media and adding 50 μl ice cold 10% Trichloroacetic Acid (TCA) per well and incubate at 4° C. for 30-60 min, The plates are washed with water five times and allowed to air dry for 5 min. […] Following staining, plates are washed four times with 1% acetic acid to remove unbound dye and then allowed to air dry for 5 min. […] Absorbance is read at 570 nm.
(§3) The percentage (%) of relative growth inhibition was calculated by comparing to DMSO treated only cells (100%). GI50's were determined for compounds with cytotoxic activity. The GI50 was calculated using GraphPad PRISM software (GraphPad Software, Inc., San Diego, Calif., USA).

[2] = system: MDA-MB-468 basal breast cancer cell line; experiment: as above; assay type: cell-based; conditions: Homo sapiens, 5 days culture, SRB
Description: as §1, §2, §3

[3] = system: MCF-7 luminal breast cancer cell line; experiment: as above; assay type: cell-based; conditions: Homo sapiens, MCF7, 120 h, read-out: Cell Line GI50 Range MCF-7
Description: as §1, §2, §3

[4] = system: A549 lung cancer cell line; experiment: as above; assay type: cell-based; conditions: Homo sapiens, read-out: Cell Line GI50 Range A-549
Description: as §1, §2, §3

[5] = system: SW620 colon cancer cell line; experiment: as above; assay type: cell-based; conditions: Homo sapiens, SW-620, 120 h, read-out: Cell Line GI50 Range SW-620
Description: as §1, §2, §3

Aurora B = molecular target: T2, Aurora B (Homo sapiens, UniProt Q96GD4); experiment: Aurora B Inhibition Assay (Z-Lyte); assay type: biochemical; conditions: 128 μM ATP; read-out: Aurora B IC50 Ranges
T2 construct: purchased Invitrogen PV3970
T2 sequence (Q96GD4 whole entry): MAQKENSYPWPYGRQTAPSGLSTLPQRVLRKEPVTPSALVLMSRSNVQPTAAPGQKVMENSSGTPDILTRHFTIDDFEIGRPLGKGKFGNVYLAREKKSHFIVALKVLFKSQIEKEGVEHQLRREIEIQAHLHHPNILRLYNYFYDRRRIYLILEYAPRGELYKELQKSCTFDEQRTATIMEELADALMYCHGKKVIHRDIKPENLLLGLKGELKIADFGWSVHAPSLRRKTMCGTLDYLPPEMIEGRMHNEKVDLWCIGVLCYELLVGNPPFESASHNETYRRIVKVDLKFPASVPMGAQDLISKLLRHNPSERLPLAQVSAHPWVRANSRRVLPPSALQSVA
Description: Aurora B inhibition was determined using the Z-Lyte assay kit from Invitrogen. […] The % inhibition values were determined according to the manufacturer's directions and IC50 values were obtained using a non-linear 4 point logistic curve fit (XLfit4, IDBS)

Aurora A = molecular target: T3, Aurora A (Homo sapiens, UniProt O14965); experiment: Aurora A Inhibition Assay (Z-Lyte); assay type: biochemical; conditions: 1 μM compound; 20 μM ATP; read-out: Aurora A relative inhibition percentage at a dose of 1 μM
T3 construct: purchased Invitrogen PV3612
T3 sequence (O14965 1-403): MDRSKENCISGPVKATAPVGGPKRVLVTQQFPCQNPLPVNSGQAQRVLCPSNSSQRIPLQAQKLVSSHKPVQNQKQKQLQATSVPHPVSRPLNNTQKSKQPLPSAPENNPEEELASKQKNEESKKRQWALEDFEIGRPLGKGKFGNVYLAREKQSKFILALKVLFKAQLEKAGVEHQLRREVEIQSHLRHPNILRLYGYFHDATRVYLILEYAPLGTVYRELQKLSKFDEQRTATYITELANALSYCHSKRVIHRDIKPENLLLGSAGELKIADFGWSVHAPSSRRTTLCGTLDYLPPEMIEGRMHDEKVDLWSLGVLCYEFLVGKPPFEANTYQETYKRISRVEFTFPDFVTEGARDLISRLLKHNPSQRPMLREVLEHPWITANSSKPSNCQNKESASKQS
Description: Aurora A inhibition was determined using the Z-Lyte assay kit from Invitrogen. The assay was performed using the recommended manufacturer's instructions with 20 μM ATP and 12 nM Aurora A (Invitrogen cat # PV3612). The % inhibition values were determined according to the manufacturer's directions and IC50 values were obtained using a non-linear 4 point logistic curve fit (XLfit4, IDBS)

AMPKalpha = experiment: CEREP HTRF kinase selectivity assay; assay type: biochemical, human
Description: The inhibitory activity of selected compounds of the invention was evaluated against a panel of 45 different kinase enzymes by CEREP, France. The assays were performed using standard HTRF assay methods as documented by CEREP against the human orthologues of Ab1 kinase, Akt1/PKBa, AMPKa, BMX kinase (Etk), Brk, CaMK2a, CaMK4, CDC2/CDK1 (cycB), CHK1, CHK2, c-Met kinase, CSK, EphB4 kinase, ERKI, ERK2 (P42mapk), FGFR2 kinase, FGFR4 kinase, FLT-1 kinase (VEGFR1), FLT-3 kinase, Fyn kinase, 1GF1R kinase, IRK (InsR), JNK 2, KDR kinase (VEGFR2), Lck kinase, Lyn kinase, MAPKAPK2, MEK1/MAP2K1, p38a kinase, p38d kinase, p38 g kinase, PDGFRb kinase, PDKI, PKA, PKCa, PKCb1, PKCb2, PKCg, Ret kinase, ROCK2, RSK2, Src kinase, Syk, and TRKA (Table 3). The % Inhibition was determined by the formula; % Inhibition=100×(1−(experimental value−background value)/(high activity control−background value)).

HUV-EC-C cells = experiment: In Vitro Angiogenesis Assay (tube formation); conditions: HUV-EC-C cells on ECMatrix, 4 hr; FIGS. 1 and 2
[6] = 15 μM ATP, read-out: PLK4 IC50 Ranges
[7] = 120 h, HCC1954 basal breast cancer cell line, read-out: Cell Line GI50 Range HCC-1954
[8] = 120 h, MDA-MB-468 basal breast cancer cell line, read-out: Cell Line GI50 Range MDA-MB-468
[9] = MCF-7 luminal breast cancer cell line, 5 days culture, SRB
[10] = 120 h, A549 lung cancer cell line, 5 days culture, SRB
[11] = SW620 colon cancer cell line, 5 days culture, SRB
[12] = HCC1954, 120 h, read-out: Cell Line GI50 Range HCC-1954, HCC1954 basal breast cancer cell line
[13] = MDA-MB-468, 120 h, read-out: Cell Line GI50 Range MDA-MB-468, MDA-MB-468 basal breast cancer cell line
[14] = HCC1954, 120 h, HCC1954 basal breast cancer cell line, read-out: Cell Line GI50 Range HCC-1954

SMILES	IC50 (human PLK4; [6]) [nM]	GI50 [2, 8] [nM]	GI50 [3, 9] [nM]	GI50 [4, 10] [nM]	GI50 [5, 11] [nM]	IC50 (Aurora B) [nM]	IC50 (human PLK4) [nM]	also measured
COc1ccc2c(c1)[C@@]1(C[C@@H]1c1ccc3c(-c4ccc(N5CCNCC5)cc4)n[nH]c3c1)C(=O)N2 (racemic) [Example A48, (1R*,2S*)-5′-methoxy-2-(3-(4-(piperazin-1-yl)phenyl)-1H-indazol-6-yl)spiro[cyclopropane-1,3′-indolin]-2′-one 2,2,2-trifluoroacetate]	–	–	–	–	–	< 100	< 100	GI50 [1, 12]: 1000 to 10000 nM; GI50 [2, 13]: < 100 nM; GI50 [3]: < 100 nM; GI50 ([4]; A549, 120 h): < 100 nM; GI50 [5]: 1000 to 10000 nM; inhibition at 1 µM (Aurora A): < 50%
O=C1Nc2ccccc2[C@]12C[C@H]2c1ccc2c(I)n[nH]c2c1 (relative stereo) [Example A9, (1R*,2S*)-2-(3-iodo-1H-indazol-6-yl)spiro[cyclopropane-1,3′-indolin]-2′-one]	–	–	–	–	–	–	100 to 1000	–
COc1ccc2c(c1)[C@]1(C[C@H]1c1ccc3c(-c4ccc(N5CCN(C)CC5)nc4)n[nH]c3c1)C(=O)N2 (relative stereo) [Example A13, (1R*,2S*)-5′-Methoxy-2-(3-(6-(4-methylpiperazin-1-yl)pyridin-3-yl)-1H-indazol-6-yl)spiro[cycloropane-1,3′-indolin]-2′-one]	–	–	–	–	–	–	–	% Inhibition @ 10 uM (AMPKalpha): 8%; anti-angiogenic effect (tube formation, % of control tube count) (HUV-EC-C cells): anti-agiogenic effects at submicromolar concentrations
COc1ccc2c(c1)[C@]1(C[C@H]1c1ccc3c(-c4ccc(N5CCNCC5)cc4)n[nH]c3c1)C(=O)N2 [Example A49, (1R,2S)-5′-methoxy-2-(3-(4-(piperazin-1-yl)phenyl)-1H-indazol-6-yl)spiro[cyclopropane-1,3′-indolin]-2′-oneone 2,2,2-trifluoroacetate]	–	–	–	–	–	< 100	< 100	GI50 [1, 12]: 1000 to 10000 nM; GI50 [2, 13]: < 100 nM; GI50 [3]: < 100 nM; GI50 ([4]; A549, 120 h): < 100 nM; GI50 [5]: 1000 to 10000 nM; inhibition at 1 µM (Aurora A): < 50%

Now from value to molecule, other results behind:

IC50 (human PLK4; [6]) [nM]	GI50 [2, 8] [nM]	GI50 [3, 9] [nM]	GI50 [4, 10] [nM]	GI50 [5, 11] [nM]	IC50 (Aurora B) [nM]	SMILES	IC50 (human PLK4) [nM]	also measured
< 100	100 to 1000	< 100	1000 to 10000	1000 to 10000	< 100	COc1ccc2c(c1)[C@@]1(C[C@@H]1c1ccc3c(-c4ccc(N5CCNCC5)nc4)n[nH]c3c1)C(=O)N2 (racemic) [Example A21, 4-(5-(6-((1R*,2S*)-5′-Methoxy-2′-oxospiro[cyclopropane-1,3′-indoline]-2-yl)-1H-indazol-3-yl)pyridinium-2-yl)piperazine bis(2,2,2-trifluoroacetate)]	–	GI50 [1, 7]: > 10000 nM
< 100	1000 to 10000	1000 to 10000	1000 to 10000	> 10000	–	COc1ccc2c(c1)[C@@]1(C[C@@H]1c1ccc3c(-c4cccc(CCO)c4)n[nH]c3c1)C(=O)N2 (racemic) [Example A46, (1R*,2S*)-2-(3-(3-(2-hydroxethyl)phenyl)-1H-indazol-6-yl)-5′-methoxy spiro[cyclopropane-1,3′-indolin]-2′-one]	–	GI50 [1, 7]: > 10000 nM
< 100	< 100	< 100	< 100	< 100	< 100	COc1ccc2c(c1)[C@@]1(C[C@@H]1c1ccc3c(-c4ccc(N5CCC(N(C)C)CC5)cc4)n[nH]c3c1)C(=O)N2 (racemic) [Example A119, (1R*,2S*)-2-(3-(4-(4-(dimethlamino)piperidin-yl)phenyl)-1H-indazol-6-yl)-5′-methoxyspiro[cyclopropane-1,3′-indolin]-2′-one 2,2,2-trifluoroacetate]	–	GI50 [1, 14]: 100 to 1000 nM
< 100	< 100	< 100	< 100	< 100	< 100	COc1ccc2c(c1)[C@@]1(C[C@@H]1c1ccc3c(/C=C/c4csc(CN(C)C)c4)n[nH]c3c1)C(=O)N2 (racemic) [Example A181, (1R*,2S*)-2-(3-((E)-2-(5-((dimethylamino)methyl)thiophen-3-yl)vinyl)-1H-indazol-6-yl)-5′-methoxyspiro[cyclopropane-1,3′-indolin]-2′-one 2,2,2-trifluoro acetate]	–	GI50 [1, 14]: 100 to 1000 nM
< 100	–	–	–	–	< 100	COc1ccc2c(c1)[C@]1(C[C@H]1c1ccc3c(/C=C/c4cc(F)c(CN(C)C)c(F)c4)n[nH]c3c1)C(=O)N2 (relative stereo) [Example A215, (1R*,2 S*)-(E)-2-(3-(4-((dimethylamino)methyl)-3,5-difluorostyryl)-1H-indazol-6-yl)-5′-methoxyspiro[cyclopropane-1,3′-indolin]-2′-one 2,2,2-trifluoro acetate]	–	–
